Columns and labels:
normotensive dogs [1] = assay: Intraocular pressure (IOP) in normotensive dogs; format: in vivo, dog; conditions: Canis lupus familiaris, topical, 120 h, dosing once daily for 5 days, read-out: maximum IOP decrease from baseline (percent)
Protocol: (§1) (Z)-7-[(1R,2S,3R,5R)-5-Chloro-2-(3,5-dichloro-phenoxymethyl)-3-hydroxy-cyclopentyl]-hept-5-enoic acid (15b) was tested at multiple concentrations in normotensive dogs, dosing once daily for 5 days. At 0.05%, the maximum IOP decrease from baseline was 4.3 mmHg (30%) at 6 h; the maximum OSH score was 0.6 at 6 h. […] This compound was also tested in laser-induced hypertensive monkeys, using one single day dose. At 0.1%, the maximum IOP decrease from baseline was 6 mmHg (19%) at 6 h.
(§2) (Z)-7-[(1R,2S,3R,5R)-5-Chloro-2-(3,5-dichloro-phenoxymethyl)-3-hydroxy-cyclopentyl]-hept-5-enoic acid isopropyl ester (42b) was tested in normotensive dogs at 0.05%, dosing once daily for 5 days. The maximum intraocular pressure (IOP) decrease from baseline was 3 mmHg (19%) at 6 h; the maximum ocular surface hyperemia (OSH) score was 0.6 at 74 h. This compound was also tested in laser-induced hypertensive monkeys, using one single day dose. At 0.01%, the maximum IOP decrease from baseline was 6 mmHg (16%) at 6 h.

normotensive dogs [2] = assay: Ocular surface hyperemia (OSH) in normotensive dogs; format: in vivo, dog; design: maximum OSH score: scale not given here; conditions: dosing once daily for 5 days
Protocol: as §1, §2

[3] = tested on: laser-induced hypertensive monkeys; assay: Intraocular pressure (IOP) in laser-induced hypertensive monkeys; format: in vivo, monkey; conditions: Primates, topical, 0.1%, one single day dose, read-out: maximum IOP decrease from baseline (percent)
Protocol: as §1, §2

maximum OSH score (normotensive dogs [2]; 0.05%): 0.6 | time of maximum OSH score (normotensive dogs [2]; 0.05%): 6 h | maximum OSH score (normotensive dogs [2]; 0.1%): 1.3 | time of maximum OSH score (normotensive dogs [2]; 0.1%): 6 h
SMILES: O=C(O)CCC/C=C\C[C@@H]1[C@@H](COc2cc(Cl)cc(Cl)c2)[C@H](O)C[C@H]1Cl [Example 12, (Z)-7-[(1R,2S,3R,5R)-5-Chloro-2-(3,5-dichloro-phenoxymethyl)-3-hydroxy-cyclopentyl]-hept-5-enoic acid]
inhibition in vivo at 0.05 % (normotensive dogs [1]; 0.05%): 30% | inhibition in vivo at 0.1 % (normotensive dogs [1]; 0.1%): 34% | inhibition in vivo at 0.1 % [3]: 19%

Source: patent US7635716B2, “Substituted cyclopentanes or cyclopentanones as therapeutic agents” (Allergan, Inc., priority 2005, dated 2009)
